Results taken from patent US20230241257A1, “BIOTIN-MODIFIED DIMER AND USE THEREOF” (THE UNIVERSITY OF TOKYO, priority 2020, published 2023).

What was measured:
[1] = tested on: human stomach cancer cells (MKN-45); test: Experiment 3: pharmacokinetics of Cupid-scFv antibody (48 h before)+^211At-psyche-B in MKN-45 cancer-bearing mouse models; format: in vivo, mice (BALB/cSlc nu/nu)
Description: The present experiment highly used CEA-expressing human stomach cancer cells (MKN-45). 9-week-old male immunodeficient mice (BALB/cSlc nu/nu) were used. MKN-45 cells (1×10^7/0.1 ml) were transplanted into the mice's subcutis on the right shoulder dorsal side to produce cancer-bearing mouse models. The mice were divided into four groups when the tumor volume became a predetermined size (on Day 12 after the transplantation). A Cupid-scFv antibody was administered in 100 μmol/0.1 ml via the caudal vein of each mouse. Forty-eight hours after administration of the Cupid-scFv antibody, ^211At-psyche-B (about 0.25 MBq/100 ml) was administered via the caudal vein of the mice. One minute, 1 hour, 6 hours, and 24 hours after administration of the ^211At-psyche-B, the mice were euthanized by collecting whole blood from the heart of each mouse under isoflurane anesthesia, and tumor tissues and normal tissues/organs were then excised. Normal tissues/organs: skin (lower right limb), muscle (right gastrocnemius muscle), heart, lung, spleen, pancreas, white fat (upper portion of right side testis), testis (both sides), stomach, stomach contents, small intestine (including contents), large intestine (including contents), liver, brown fat (interscapular), submandibular gland, thyroid gland (together with trachea), bone (right femur), cerebrum, eyeballs (both sides), bladder, and urine; the remaining residues were divided into three equal parts, and the three equal parts were defined to be residue-1, residue-2, and residue-3. After that, the weights of blood, plasma, urine, tumor, and normal tissues/organs were measured, and the radioactivity thereof was then measured using a γ counter. The amounts of the ^211At-psyche-B (radioactivity) accumulated in the blood, plasma, urine, tumor, and normal tissues/organs were calculated. That is to say, the rates (% ID/g) of the ^211At-psyche-B accumulated per unit weight (g) of the blood, plasma, urine, tumor, and normal tissues/organs, in the administered ^211At-psyche-B, were shown. Regarding accumulation of the ^211At-psyche-B in the thyroid gland, since the weight of the thyroid gland could not be precisely measured, it was shown that the rate (% ID) of the ^211At-psyche-B accumulated in the thyroid gland in the administered ^211At-psyche-B.

[2] = tested on: human stomach cancer cells (MKN-45); test: Experiment 7: pharmacokinetics of ^211At-psyche-BR in the absence of Cupid-scFv antibody in MKN-45 cancer-bearing mouse models; format: in vivo, mice (BALB/cSlc nu/nu); conditions: no Cupid-scFv antibody
Description: The present experiment used human stomach cancer cells (MKN-45) expressing carcinoembryonic antigen (CEA). 9-week-old male immunodeficient mice (BALB/cSlc nu/nu) were used. MKN-45 cells (1×10^7/0.1 ml) were transplanted into the mice's subcutis on the right shoulder dorsal side to produce cancer-bearing mouse models. The mice were divided into four groups at the time the tumor volume became a predetermined size (on Day 19 after the transplantation), and ^211At-psyche-BR was administered via the caudal vein of each mouse. One minute, 1 hour, 6 hours, and 24 hours after administration of the ^211At-psyche-BR, the mice were euthanized by collecting whole blood from the heart of each mouse under isoflurane anesthesia, and tumor tissues and normal tissues/organs were then excised. Normal tissues/organs: muscle (right gastrocnemius muscle), heart, lung, spleen, pancreas, testis (both sides), stomach, stomach contents, small intestine (not including contents), large intestine (not including contents), liver, kidney, submandibular gland, thyroid gland (together with trachea), bone (right femur), and cerebrum. After that, the weights of blood, plasma, tumor, and normal tissues/organs were measured, and the radioactivity thereof was then measured using a γ counter. The amounts of the ^211At-psyche-BR (radioactivity) accumulated in the blood, plasma, urine, tumor, and normal tissues/organs were calculated. That is to say, the rates (% ID/g) of the ^211At-psyche-BR accumulated per unit weight (g) of the blood, plasma, urine, tumor, and normal tissues/organs, in the administered ^211At-psyche-BR were shown. Regarding accumulation of the ^211At-psyche-BR in the thyroid gland, since the weight of the thyroid gland could not be precisely measured, it was shown that the rate (% ID) of the ^211At-psyche-BR accumulated in the thyroid gland in the administered ^211At-psyche-BR.

N=C1N[C@H]2[C@H](CS[C@H]2CCCCC(=O)NCCCCCC(=O)Nc2cc(NC(=O)CCCCCNC(=O)CCCC[C@@H]3SC[C@@H]4NC(=N)N[C@@H]43)cc(C(=O)NCCOCCOCCNC(=O)c3cccc([211At])c3)c2)N1 [^211At-psyche-B]
Accumulation in the kidney ([1]; after 1 minute): 62.3±9.8 % ID/g | Accumulation in the liver ([1]; after 1 minute): 41.4±6.2 % ID/g | Accumulation in the lung ([1]; after 1 minute): 10.2±1.6 % ID/g | Accumulation in the spleen ([1]; after 1 minute): 3.5±0.1 % ID/g | Accumulation in the tumor ([1]; after 1 minute): 0.5±0.1 % ID/g | Clearance from the blood ([1]; after 1 minute): 30.7±2.2 % ID/g | tumor-to-blood ratio ([1]; after 1 minute): 0.02±0.00 | tumor-to-muscle ratio ([1]; after 1 minute): 1.0±0.3 | Accumulation in the kidney ([1]; after 1 hour): 38.0±4.5 % ID/g | Accumulation in the liver ([1]; after 1 hour): 25.6±2.5 % ID/g | Accumulation in the lung ([1]; after 1 hour): 12.2±0.9 % ID/g | Accumulation in the spleen ([1]; after 1 hour): 8.5±0.6 % ID/g | Accumulation in the tumor ([1]; after 1 hour): 3.2±0.7 % ID/g | Clearance from the blood ([1]; after 1 hour): 30.8±5.5 % ID/g | tumor-to-blood ratio ([1]; after 1 hour): 0.11±0.02 | tumor-to-muscle ratio ([1]; after 1 hour): 4.7±0.4 | Accumulation in the kidney ([1]; after 6 hours): 14.9±0.8 % ID/g | Accumulation in the liver ([1]; after 6 hours): 23.6±2.3 % ID/g | Accumulation in the lung ([1]; after 6 hours): 8.5±0.9 % ID/g | Accumulation in the spleen ([1]; after 6 hours): 11.1±0.7 % ID/g | Accumulation in the tumor ([1]; after 6 hours): 9.9±2.9 % ID/g | Clearance from the blood ([1]; after 6 hours): 19.0±2.6 % ID/g | tumor-to-blood ratio ([1]; after 6 hours): 0.51±0.09 | tumor-to-muscle ratio ([1]; after 6 hours): 13.1±3.5 | Accumulation in the thyroid gland ([1]; after 24 h): 0.16±0.02 % ID | Accumulation in the kidney ([1]; after 24 hours): 6.6±0.2% | Accumulation in the liver ([1]; after 24 hours): 19.3±0.6% | Accumulation in the lung ([1]; after 24 hours): 3.5±0.2% | Accumulation in the spleen ([1]; after 24 hours): 10.2±1.6% | Accumulation in the tumor ([1]; after 24 hours): 11.3±3.3% | Clearance from the blood ([1]; after 24 hours): 2.6±0.5 % ID/g | tumor-to-blood ratio ([1]; after 24 hours): 4.38±0.85 | tumor-to-muscle ratio ([1]; after 24 hours): 23.2±7.2 | Accumulation in the blood ([2]; after 1 minute): 13.5±1.1 % ID/g | Accumulation in the kidney ([2]; after 1 minute): 72.7±5.6 % ID/g | Accumulation in the liver ([2]; after 1 minute): 51.1±5.9 % ID/g | Accumulation in the tumor ([2]; after 1 minute): 0.3±0.04 % ID/g | Accumulation in the blood ([2]; after 1 hour): 2.1±0.2 % ID/g | Accumulation in the kidney ([2]; after 1 hour): 77.9±2.1 % ID/g | Accumulation in the liver ([2]; after 1 hour): 30.8±3.3 % ID/g | Accumulation in the tumor ([2]; after 1 hour): 0.4±0.02 % ID/g | Accumulation in the blood ([2]; after 6 hours): 1.0±0.2 % ID/g | Accumulation in the kidney ([2]; after 6 hours): 32.1±8.2 % ID/g | Accumulation in the liver ([2]; after 6 hours): 19.6±0.5 % ID/g | Accumulation in the tumor ([2]; after 6 hours): 0.8±0.09 % ID/g | Accumulation in the thyroid gland ([2]; after 6 hours of administration): 0.29±0.05 % ID | Accumulation in the blood ([2]; after 24 hours): 0.2±0.04 % ID/g | Accumulation in the kidney ([2]; after 24 hours): 3.0±0.1% | Accumulation in the liver ([2]; after 24 hours): 5.0±0.2% | Accumulation in the tumor ([2]; after 24 hours): 0.4±0.02%
